How the values were obtained:
Assay type in all cases: in vivo
[1] = test system: Solanum nigrum; test: Pre-emergent herbicidal action (B.2); conditions: 500 bis 2000 [g/ha], evaluated after 3 weeks
Method in brief: (§1)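 Immediately after sowing in greenhouse, soil surface sprayed with aqueous dispersion of an emulsion concentrate at 2000-500 g active ingredient/ha. Plants kept at 22-25 °C, 50-70% relative humidity; damage rated after 3 weeks on a 1 (dead/not germinated) to 9 (normal growth) scale.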

[2] = test system: Sinapis; test: Pre-emergent herbicidal action (B.2); conditions: 500 bis 2000 [g/ha], evaluated after 3 weeks
Method in brief: as §1

[3] = test system: Echinochloa crus galli; test: Pre-emergent herbicidal action (B.2); conditions: 500 bis 2000 [g/ha], evaluated after 3 weeks
Method in brief: as §1

[4] = test system: Abutilon; test: Pre-emergent herbicidal action (B.2); conditions: 500 bis 2000 [g/ha], evaluated after 3 weeks
Method in brief: as §1

[5] = test system: Bromus tectorum; test: Pre-emergent herbicidal action (B.2); conditions: 500 bis 2000 [g/ha], evaluated after 3 weeks
Method in brief: as §1

[6] = test system: Stellaria; test: Pre-emergent herbicidal action (B.2); conditions: 500 bis 2000 [g/ha], evaluated after 3 weeks
Method in brief: as §1

[7] = test system: Lolium perenne; test: Pre-emergent herbicidal action (B.2); conditions: 500 bis 2000 [g/ha], evaluated after 3 weeks
Method in brief: as §1

[8] = test system: Veronica Sp.; test: Pre-emergent herbicidal action (B.2); conditions: 500 bis 2000 [g/ha], evaluated after 3 weeks
Method in brief: as §1

[9] = test system: Chrysanthe. leuc.; test: Pre-emergent herbicidal action (B.2); conditions: 500 bis 2000 [g/ha], evaluated after 3 weeks
Method in brief: as §1

[10] = test system: Ipomoea; test: Pre-emergent herbicidal action (B.2); conditions: 500 bis 2000 [g/ha], evaluated after 3 weeks
Method in brief: as §1

[11] = test system: Avena fatua; test: Pre-emergent herbicidal action (B.2); conditions: 500 bis 2000 [g/ha], evaluated after 3 weeks
Method in brief: as §1

[12] = test system: Sorghum halep.; test: Pre-emergent herbicidal action (B.2); conditions: 500 bis 2000 [g/ha], evaluated after 3 weeks
Method in brief: as §1

[13] = test system: Galium aparine; test: Pre-emergent herbicidal action (B.2); conditions: 500 bis 2000 [g/ha], evaluated after 3 weeks
Method in brief: as §1

[14] = test system: Digitaria sang.; test: Pre-emergent herbicidal action (B.2); conditions: 500 bis 2000 [g/ha], evaluated after 3 weeks
Method in brief: as §1

[15] = test system: Alopecurus myos.; test: Pre-emergent herbicidal action (B.2); conditions: 500 bis 2000 [g/ha], evaluated after 3 weeks
Method in brief: as §1

[16] = test system: Chenopodium Sp.; test: Pre-emergent herbicidal action (B.2); conditions: 500 bis 2000 [g/ha], evaluated after 3 weeks
Method in brief: as §1

[17] = test system: Amaranthus ret.; test: Pre-emergent herbicidal action (B.2); conditions: 500 bis 2000 [g/ha], evaluated after 3 weeks
Method in brief: as §1

[18] = test system: Soja; test: Pre-emergent herbicidal action (B.2), crop tolerance; conditions: 500 bis 2000 [g/ha], evaluated after 3 weeks
Description: (§2) Im Gewächshaus wird unmittelbar nach der Einsaat der Versuchspflanzen in Saatschalen die Erdoberfläche mit einer wässrigen Dispersion der Wirkstoffe, erhalten aus einem 25 %igen Emulsionskonzentrat behandelt. Es werden Konzentrationen von 2000-500 g Wirksubstanz/Hektar angewendet. Die Saatschalen werden im Gewächshaus bei 22-25° C und 50-70 % relativer Luftfeuchtigkeit gehalten und der Versuch nach 3 Wochen ausgewertet und die Resultate nach folgender Notenskala ausgewertet. • 1 Pflanze hat nicht gekeimt oder ist eingegangen • 2-3 sehr starke Schäden • 4 starke Schäden • 5 mittlere Schäden, die Pflanzen sind verkümmert • 6 Schäden, die Pflanze kann regenerieren • 7-8 leichte Schäden • 9 normales Wachstum, wie das unbehandelter Pflanzen
(§3) Boniturnoten von 1 bis 4 (insbesondere von 1 bis 3) weisen auf eine gute bis sehr gute Herbizidwirkung hin. Boniturnoten von 6 bis 9 (insbesondere 7 bis 9) weisen auf eine gute Toleranz (insbesondere bei Kulturpflanzen) hin.

[19] = test system: Baumwolle; test: Post-emergent herbicidal action (B.3), crop tolerance; conditions: 500 bis 2000 [g/ha], 15 days after treatment
Description: as §2, §3
(§4) Eine Anzahl Unkräuter, sowohl monokotyle wie dikotyle, werden nach dem Auflaufen (im 4- bis 6-Blattstadium) mit einer wässrigen Wirkstoffdispersion in einer Dosierung von 2000-500 g Wirksubstanz pro Hektar auf die Pflanzen gespritzt und diese bei 24°-26°C und 45-60 % relativer Luftfeuchtigkeit gehalten. 15 Tage nach der Behandlung wird der Versuch nach dem in Beispiel B.2. gegebenen Massstab bewertet.

[20] = test system: Soja; test: as above; conditions: 500 bis 2000 [g/ha], 15 days after treatment
Description: as §2, §3, §4

[21] = test system: Solanum nigrum; test: Post-emergent herbicidal action, contact herbicide (B.3); conditions: 500 bis 2000 [g/ha], 15 days after treatment
Method in brief: (§5)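 Greenhouse, post-emergence spray on 4-6-leaf weeds; aqueous dispersion, 2000-500 g a.i./ha; 24-26 °C, 45-60% RH; visual rating at 15 d, 1 = dead, 9 = normal growth.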

[22] = test system: Sinapis; test: as above; conditions: 500 bis 2000 [g/ha], 15 days after treatment
Method in brief: as §5

[23] = test system: Echinochloa crus galli; test: as above; conditions: 500 bis 2000 [g/ha], 15 days after treatment
Method in brief: as §5

[24] = test system: Abutilon; test: as above; conditions: 500 bis 2000 [g/ha], 15 days after treatment
Method in brief: as §5

[25] = test system: Bromus tectorum; test: as above; conditions: 500 bis 2000 [g/ha], 15 days after treatment
Method in brief: as §5

[26] = test system: Stellaria; test: as above; conditions: 500 bis 2000 [g/ha], 15 days after treatment
Method in brief: as §5

[27] = test system: Lolium perenne; test: as above; conditions: 500 bis 2000 [g/ha], 15 days after treatment
Method in brief: as §5

[28] = test system: Veronica Sp.; test: as above; conditions: 500 bis 2000 [g/ha], 15 days after treatment
Method in brief: as §5

[29] = test system: Chrysanthe. leuc.; test: as above; conditions: 500 bis 2000 [g/ha], 15 days after treatment
Method in brief: as §5

[30] = test system: Avena fatua; test: as above; conditions: 500 bis 2000 [g/ha], 15 days after treatment
Method in brief: as §5

[31] = test system: Sorghum halep.; test: as above; conditions: 500 bis 2000 [g/ha], 15 days after treatment
Method in brief: as §5

[32] = test system: Galium aparine; test: as above; conditions: 500 bis 2000 [g/ha], 15 days after treatment
Method in brief: as §5

[33] = test system: Digitaria sang.; test: as above; conditions: 500 bis 2000 [g/ha], 15 days after treatment
Method in brief: as §5

[34] = test system: Xanthium Sp.; test: as above; conditions: 500 bis 2000 [g/ha], 15 days after treatment
Method in brief: as §5

[35] = test system: Alopecurus myos.; test: as above; conditions: 500 bis 2000 [g/ha], 15 days after treatment
Method in brief: as §5

[36] = test system: Chenopodium Sp.; test: as above; conditions: 500 bis 2000 [g/ha], 15 days after treatment
Method in brief: as §5

[37] = test system: Amaranthus ret.; test: as above; conditions: 500 bis 2000 [g/ha], 15 days after treatment
Method in brief: as §5

CC1CCc2nc(C3=NC(=O)C(C)(C(C)C)N3)c(C(=O)O)cc2C1 (stereo not shown) [Verbindung 2.01, 2-(5-Isopropyl-5-methyl-1H-imidazol-4-on-2-yl)-6-methyl-5,6,7,8-tetrahydrochinolin-3-carbonsäure]
Herbizidwirkung [1]: gute bis sehr gute Herbizidwirkung (Boniturnoten von 1 bis 4 (insbesondere von 1 bis 3) weisen auf eine gute bis sehr gute Herbizidwirkung hin)
Herbizidwirkung [2]: gute bis sehr gute Herbizidwirkung (Boniturnoten von 1 bis 4 (insbesondere von 1 bis 3) weisen auf eine gute bis sehr gute Herbizidwirkung hin)
Herbizidwirkung [3]: gute bis sehr gute Herbizidwirkung (Boniturnoten von 1 bis 4 (insbesondere von 1 bis 3) weisen auf eine gute bis sehr gute Herbizidwirkung hin)
Herbizidwirkung [4]: gute bis sehr gute Herbizidwirkung (Boniturnoten von 1 bis 4 (insbesondere von 1 bis 3) weisen auf eine gute bis sehr gute Herbizidwirkung hin)
Herbizidwirkung [5]: gute bis sehr gute Herbizidwirkung (Boniturnoten von 1 bis 4 (insbesondere von 1 bis 3) weisen auf eine gute bis sehr gute Herbizidwirkung hin)
Herbizidwirkung [6]: gute bis sehr gute Herbizidwirkung (Boniturnoten von 1 bis 4 (insbesondere von 1 bis 3) weisen auf eine gute bis sehr gute Herbizidwirkung hin)
Herbizidwirkung [7]: gute bis sehr gute Herbizidwirkung (Boniturnoten von 1 bis 4 (insbesondere von 1 bis 3) weisen auf eine gute bis sehr gute Herbizidwirkung hin)
Herbizidwirkung [8]: gute bis sehr gute Herbizidwirkung (Boniturnoten von 1 bis 4 (insbesondere von 1 bis 3) weisen auf eine gute bis sehr gute Herbizidwirkung hin)
Herbizidwirkung [9]: gute bis sehr gute Herbizidwirkung (Boniturnoten von 1 bis 4 (insbesondere von 1 bis 3) weisen auf eine gute bis sehr gute Herbizidwirkung hin)
Herbizidwirkung [10]: gute bis sehr gute Herbizidwirkung (Boniturnoten von 1 bis 4 (insbesondere von 1 bis 3) weisen auf eine gute bis sehr gute Herbizidwirkung hin)
Herbizidwirkung [11]: gute bis sehr gute Herbizidwirkung (Boniturnoten von 1 bis 4 (insbesondere von 1 bis 3) weisen auf eine gute bis sehr gute Herbizidwirkung hin)
Herbizidwirkung [12]: gute bis sehr gute Herbizidwirkung (Boniturnoten von 1 bis 4 (insbesondere von 1 bis 3) weisen auf eine gute bis sehr gute Herbizidwirkung hin)
Herbizidwirkung [13]: gute bis sehr gute Herbizidwirkung (Boniturnoten von 1 bis 4 (insbesondere von 1 bis 3) weisen auf eine gute bis sehr gute Herbizidwirkung hin)
Herbizidwirkung [14]: gute bis sehr gute Herbizidwirkung (Boniturnoten von 1 bis 4 (insbesondere von 1 bis 3) weisen auf eine gute bis sehr gute Herbizidwirkung hin)
Herbizidwirkung [15]: gute bis sehr gute Herbizidwirkung (Boniturnoten von 1 bis 4 (insbesondere von 1 bis 3) weisen auf eine gute bis sehr gute Herbizidwirkung hin)
Herbizidwirkung [16]: gute bis sehr gute Herbizidwirkung (Boniturnoten von 1 bis 4 (insbesondere von 1 bis 3) weisen auf eine gute bis sehr gute Herbizidwirkung hin)
Herbizidwirkung [17]: gute bis sehr gute Herbizidwirkung (Boniturnoten von 1 bis 4 (insbesondere von 1 bis 3) weisen auf eine gute bis sehr gute Herbizidwirkung hin)
Toleranz (im Wachstum beeinflusst) [18]: gute Toleranz (Boniturnoten von 6 bis 9 (insbesondere 7 bis 9) weisen auf eine gute Toleranz (insbesondere bei Kulturpflanzen) hin)
Toleranz (im Wachstum beeinflusst) [19]: gute Toleranz (Boniturnoten von 6 bis 9 (insbesondere 7 bis 9) weisen auf eine gute Toleranz (insbesondere bei Kulturpflanzen) hin)
Toleranz (im Wachstum beeinflusst) [20]: gute Toleranz (Boniturnoten von 6 bis 9 (insbesondere 7 bis 9) weisen auf eine gute Toleranz (insbesondere bei Kulturpflanzen) hin)
Herbizidwirkung [21]: gute bis sehr gute Herbizidwirkung (Boniturnoten von 1 bis 4 (insbesondere von 1 bis 3) weisen auf eine gute bis sehr gute Herbizidwirkung hin)
Herbizidwirkung [22]: gute bis sehr gute Herbizidwirkung (Boniturnoten von 1 bis 4 (insbesondere von 1 bis 3) weisen auf eine gute bis sehr gute Herbizidwirkung hin)
Herbizidwirkung [23]: gute bis sehr gute Herbizidwirkung (Boniturnoten von 1 bis 4 (insbesondere von 1 bis 3) weisen auf eine gute bis sehr gute Herbizidwirkung hin)
Herbizidwirkung [24]: gute bis sehr gute Herbizidwirkung (Boniturnoten von 1 bis 4 (insbesondere von 1 bis 3) weisen auf eine gute bis sehr gute Herbizidwirkung hin)
Herbizidwirkung [25]: gute bis sehr gute Herbizidwirkung (Boniturnoten von 1 bis 4 (insbesondere von 1 bis 3) weisen auf eine gute bis sehr gute Herbizidwirkung hin)
Herbizidwirkung [26]: gute bis sehr gute Herbizidwirkung (Boniturnoten von 1 bis 4 (insbesondere von 1 bis 3) weisen auf eine gute bis sehr gute Herbizidwirkung hin)
Herbizidwirkung [27]: gute bis sehr gute Herbizidwirkung (Boniturnoten von 1 bis 4 (insbesondere von 1 bis 3) weisen auf eine gute bis sehr gute Herbizidwirkung hin)
Herbizidwirkung [28]: gute bis sehr gute Herbizidwirkung (Boniturnoten von 1 bis 4 (insbesondere von 1 bis 3) weisen auf eine gute bis sehr gute Herbizidwirkung hin)
Herbizidwirkung [29]: gute bis sehr gute Herbizidwirkung (Boniturnoten von 1 bis 4 (insbesondere von 1 bis 3) weisen auf eine gute bis sehr gute Herbizidwirkung hin)
Herbizidwirkung [30]: gute bis sehr gute Herbizidwirkung (Boniturnoten von 1 bis 4 (insbesondere von 1 bis 3) weisen auf eine gute bis sehr gute Herbizidwirkung hin)
Herbizidwirkung [31]: gute bis sehr gute Herbizidwirkung (Boniturnoten von 1 bis 4 (insbesondere von 1 bis 3) weisen auf eine gute bis sehr gute Herbizidwirkung hin)
Herbizidwirkung [32]: gute bis sehr gute Herbizidwirkung (Boniturnoten von 1 bis 4 (insbesondere von 1 bis 3) weisen auf eine gute bis sehr gute Herbizidwirkung hin)
Herbizidwirkung [33]: gute bis sehr gute Herbizidwirkung (Boniturnoten von 1 bis 4 (insbesondere von 1 bis 3) weisen auf eine gute bis sehr gute Herbizidwirkung hin)
Herbizidwirkung [34]: gute bis sehr gute Herbizidwirkung (Boniturnoten von 1 bis 4 (insbesondere von 1 bis 3) weisen auf eine gute bis sehr gute Herbizidwirkung hin)
Herbizidwirkung [35]: gute bis sehr gute Herbizidwirkung (Boniturnoten von 1 bis 4 (insbesondere von 1 bis 3) weisen auf eine gute bis sehr gute Herbizidwirkung hin)
Herbizidwirkung [36]: gute bis sehr gute Herbizidwirkung (Boniturnoten von 1 bis 4 (insbesondere von 1 bis 3) weisen auf eine gute bis sehr gute Herbizidwirkung hin)
Herbizidwirkung [37]: gute bis sehr gute Herbizidwirkung (Boniturnoten von 1 bis 4 (insbesondere von 1 bis 3) weisen auf eine gute bis sehr gute Herbizidwirkung hin)

— patent EP0327492A1, “Herbicidally and plantgrowth regulatory active quinoline and pyrindine compounds” (CIBA-GEIGY AG, priority 1988, dated 1989)
